# According to ChEMBL document CHEMBL1157538, “Discovery of a potent, selective, and orally bioavailable c-Met inhibitor: 1-(2-hydroxy-2-methylpropyl)-N-(5-(7-methoxyquinolin-4-yloxy)pyridin-2-yl)-5-methyl-3-oxo-2-phenyl-2,3-dihydro-1H-pyrazole-4-carboxamide (AMG 458)” (J Med Chem, 2008):
# Assays:
# [1] = target: Hepatocyte growth factor receptor (Homo sapiens, UniProt P08581, D1228H); test: Inhibition c-Met D1228H mutant by HTRF assay
# [2] = target: Tyrosine-protein kinase Blk (Homo sapiens, UniProt P51451); test: Inhibition of BLK
# Mus musculus [3] = test: Toxicity in human U87MG cells xenografted CD1 NU/NU mouse assessed as effect on body weight at 30 mg/kg BID for 14 days; type: organism-based, U-87MG ATCC; design: dose 30 mg/kg; conditions: in vivo, 336 h
# [4] = target: T1, Cytoplasmic tyrosine-protein kinase BMX (Homo sapiens, UniProt P51813); test: Inhibition of BMX
# T1 sequence (P51813 whole entry): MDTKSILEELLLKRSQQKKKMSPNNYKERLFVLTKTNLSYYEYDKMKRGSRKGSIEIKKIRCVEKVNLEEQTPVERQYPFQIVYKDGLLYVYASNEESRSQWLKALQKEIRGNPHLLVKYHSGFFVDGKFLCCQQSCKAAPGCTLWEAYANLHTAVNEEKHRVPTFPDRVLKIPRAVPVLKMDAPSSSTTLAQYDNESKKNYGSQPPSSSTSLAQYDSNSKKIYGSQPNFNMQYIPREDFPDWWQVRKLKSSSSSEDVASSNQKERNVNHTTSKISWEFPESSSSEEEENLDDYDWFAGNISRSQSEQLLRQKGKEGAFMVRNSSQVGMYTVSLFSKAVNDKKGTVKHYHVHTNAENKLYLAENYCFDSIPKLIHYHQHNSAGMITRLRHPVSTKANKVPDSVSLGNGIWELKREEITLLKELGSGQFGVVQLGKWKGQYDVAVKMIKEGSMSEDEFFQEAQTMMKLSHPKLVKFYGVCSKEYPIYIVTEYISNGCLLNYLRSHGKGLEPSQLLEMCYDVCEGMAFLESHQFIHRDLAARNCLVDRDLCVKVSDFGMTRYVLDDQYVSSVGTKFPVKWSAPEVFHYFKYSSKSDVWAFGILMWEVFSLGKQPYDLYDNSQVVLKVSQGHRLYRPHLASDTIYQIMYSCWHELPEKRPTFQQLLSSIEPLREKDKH
# [5] = Permeability from apical to basolateral side of human Caco-2 cell monolayer; type: ADME, cell-based; conditions: read-out: permeability
# Mus musculus [6] = test: Toxicity in human U87MG cells xenografted CD1 NU/NU mouse assessed as effect on body weight at 30 mg/kg and 100 mg/kg, qd for 14 days; type: organism-based, U-87MG ATCC; conditions: in vivo, 336 h
# [7] = Volume of distribution at steady state in Beagle dog at 1 mg/kg, iv or 10 mg/kg, po; type: ADME, organism-based, Canis lupus familiaris; conditions: in vivo, read-out: Vdss
# [8] = target: Hepatocyte growth factor receptor (Homo sapiens, UniProt P08581, Y1230H); test: Inhibition c-Met Y1230H mutant by HTRF assay
# [9] = Clearance in cynomolgus monkey at 1 mg/kg, iv or 10 mg/kg, po; type: ADME, organism-based, Macaca fascicularis; conditions: in vivo
# NIH3T3 = test: Antitumor activity in TPR-Met expressing […] NIH3T3 cells xenografted in po dosed mouse assessed as tumor growth inhibition after 24 hrs; type: functional
# [10] = Clearance in Beagle dog at 1 mg/kg, iv or 10 mg/kg, po; type: ADME, organism-based, Canis lupus familiaris; conditions: in vivo
# [11] = target: T2, Receptor-type tyrosine-protein kinase FLT3 (Homo sapiens, UniProt P36888); test: Inhibition of FLT3
# T2 sequence (P36888 whole entry): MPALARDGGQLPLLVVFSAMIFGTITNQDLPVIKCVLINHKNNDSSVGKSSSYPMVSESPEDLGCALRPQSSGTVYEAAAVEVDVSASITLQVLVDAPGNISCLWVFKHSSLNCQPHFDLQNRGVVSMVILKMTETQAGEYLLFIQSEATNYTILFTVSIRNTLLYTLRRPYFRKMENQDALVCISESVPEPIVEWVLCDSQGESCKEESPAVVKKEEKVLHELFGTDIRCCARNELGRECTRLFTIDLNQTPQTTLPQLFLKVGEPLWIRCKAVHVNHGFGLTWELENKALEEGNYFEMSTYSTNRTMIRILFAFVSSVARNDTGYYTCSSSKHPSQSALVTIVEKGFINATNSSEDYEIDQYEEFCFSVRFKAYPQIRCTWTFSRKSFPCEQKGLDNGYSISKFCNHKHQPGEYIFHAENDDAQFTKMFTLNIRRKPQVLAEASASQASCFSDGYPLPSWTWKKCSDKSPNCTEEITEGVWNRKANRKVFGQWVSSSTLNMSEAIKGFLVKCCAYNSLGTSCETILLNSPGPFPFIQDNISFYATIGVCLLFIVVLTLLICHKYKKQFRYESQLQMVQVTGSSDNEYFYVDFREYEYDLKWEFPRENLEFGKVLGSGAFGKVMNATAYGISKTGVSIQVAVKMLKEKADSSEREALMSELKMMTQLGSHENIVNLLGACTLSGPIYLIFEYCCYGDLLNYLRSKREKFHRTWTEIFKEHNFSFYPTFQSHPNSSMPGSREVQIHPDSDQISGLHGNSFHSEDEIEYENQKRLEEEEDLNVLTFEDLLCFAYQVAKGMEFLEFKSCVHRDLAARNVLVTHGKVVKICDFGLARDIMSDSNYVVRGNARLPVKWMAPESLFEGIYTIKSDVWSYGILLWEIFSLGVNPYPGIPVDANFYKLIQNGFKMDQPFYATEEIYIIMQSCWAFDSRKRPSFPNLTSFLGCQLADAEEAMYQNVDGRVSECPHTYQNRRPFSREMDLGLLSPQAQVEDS
# [12] = target: Hepatocyte growth factor receptor (Homo sapiens, UniProt P08581); test: Inhibition of human c-Met by HTRF assay
# [13] = target: Tyrosine-protein kinase Lyn (Homo sapiens, UniProt P07948); test: Inhibition of Lyn
# [14] = target: Hepatocyte growth factor receptor (Mus musculus, UniProt P16056); test: Inhibition of mouse c-Met by HTRF assay
# [15] = Half life in BALB/c mouse at 1 mg/kg, iv or 10 mg/kg, po; type: ADME, organism-based; conditions: in vivo
# [16] = Intrinsic clearance in BALB/c mouse liver microsome; type: ADME; conditions: liver microsomes
# [17] = Clearance in BALB/c mouse at 1 mg/kg, iv or 10 mg/kg, po; type: ADME, organism-based; conditions: in vivo
# [18] = target: Macrophage colony-stimulating factor 1 receptor (Homo sapiens, UniProt P07333)
# [19] = target: Tyrosine-protein kinase Fgr (Homo sapiens, UniProt P09769); test: Inhibition of FGR
# [20] = target: Tyrosine-protein kinase CSK (Homo sapiens, UniProt P41240); test: Inhibition of CSK
# [21] = Inhibition of RON
# [22] = Intrinsic clearance in cynomolgus monkey liver microsome; type: ADME, Macaca fascicularis; conditions: liver microsomes
# [23] = target: Hepatocyte growth factor receptor (Homo sapiens, UniProt P08581, M1250T); test: Inhibition c-Met M1250T mutant by HTRF assay
# [24] = Half life in Beagle dog at 1 mg/kg, iv or 10 mg/kg, po; type: ADME, organism-based, Canis lupus familiaris; conditions: in vivo
# [25] = Oral bioavailability in Beagle dog at 10 mg/kg; type: ADME, organism-based, Canis lupus familiaris; conditions: in vivo
structure (smiles),measurement,setting,value
COc1ccc2c(Oc3ccc(NC(=O)c4c(C)n(CC(C)(C)O)n(-c5ccccc5)c4=O)nc3)ccnc2c1,Ki,[1],2.2 nM
same,IC50,[2],519 nM
same,Activity,Mus musculus [3],Non-toxic
same,IC50,[4],363 nM
same,Papp A→B,[5],32 ×10⁻⁶ cm/s
same,Activity,Mus musculus [6],Non-toxic
same,Vd,[7],0.75 L/kg
same,Ki,[8],4.5 nM
same,clearance,[9],1.67 mL/min/kg
same,ED50,NIH3T3,12 mg/kg
same,ED90,NIH3T3,34 mg/kg
same,clearance,[10],5.67 mL/min/kg
same,IC50,[11],391 nM
same,Ki,[12],1.2 nM
same,IC50,[13],506 nM
same,Ki,[14],2 nM
same,half-life,[15],1.3 h
same,microsomal CLint,[16],< 5 µL/min/mg
same,clearance,[17],2.67 mL/min/kg
same,IC50,[18],238 nM
same,IC50,[19],328 nM
same,IC50,[20],165 nM
same,IC50,[21],8 nM
same,microsomal CLint,[22],8 µL/min/mg
same,Ki,[23],4.1 nM
same,half-life,[24],2.8 h
same,bioavailability,[25],100%
